Activity calls are given as the source filed them.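 Rule for the calls: active = AC50, the dose giving half-maximal effect, exceeds a fixed cutoff for a compound that rescues yeast growth under heat; inactive = the rest, inconclusive results apart.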

The test system of the experiment is S. cerevisiae Burl-1 ts mutant growth, BacTiter-Glo, 38.5C 24 h. Description: restored growth of temperature-sensitive Burl-1 yeast – whole organism, S. cerevisiae, Burl-1 ts mutant, luminescence, counter-screen for SUMOylation pathway inhibitor project, dose response (AID 463199).
Take `COc1ccc(-c2nc(NC(=O)CCNC(=O)c3ccco3)sc2C)cc1`: the AC50 is > 42 µM (inactive).
Turning to `S=C(NCCc1ccccc1)Nc1ccccc1Cl`, the AC50 is > 42 µM (inactive).
For the compound `CCOC(=O)c1sc(N/N=C/c2ccc(N(C)C)cc2)nc1C`, the AC50 is > 42 µM (inactive).
To `Cn1c(SCC(=O)Nc2nnc(-c3ccccc3)o2)nnc1C1CC1` belongs > 42 µM (inactive); to `COC(=O)c1ccc(Cl)c(NC(=O)CN(c2ccc(OC)c(OC)c2)S(C)(=O)=O)c1`, > 42 µM (inactive); to `Cn1cnnc1-c1cccc(NS(=O)(=O)c2ccc(N3CCCC3=O)cc2)c1`, > 42 µM (inactive).
To `COc1ccc(-c2cn(-c3ccc(C)cc3)c(=O)n2CC(=O)Nc2ccc(OC)c(OC)c2)cc1` belongs > 42 µM (inactive).
Next, `CC1CN(Cc2ccccc2)c2nc3c(c(=O)[nH]c(=O)n3C)n2C1` (stereo not drawn): > 42 µM (inactive); `Cc1ccc2c(c1)C(=O)N1[C@H]3c4ccccc4OC[C@@H]3[C@H](c3ccccc3)[C@]1(C)C(=O)N2`: > 42 µM (inactive); `CCOC(=O)c1cc2sc(C)cc2n1CC(=O)Nc1ccc2c(c1)OCCO2`: > 42 µM (inactive).
On to `Cc1nc(NC(=O)CSc2nc(N)cc(N)n2)sc1C`, for which the AC50 was > 42 µM (inactive).
To `Cc1cc(C)c2nc(-c3cccnc3)cc(C(=O)Nc3ccc(S(=O)(=O)Nc4onc(C)c4C)cc3)c2c1` belongs > 42 µM (inactive); to `Cc1c(NC(C)c2cc(Cl)ccc2O)c(=O)n(-c2ccccc2)n1C` (stereo not drawn), > 42 µM (inactive); to `COc1ccc(NC(=O)C(c2ccccc2)N2CCN(c3ccccn3)CC2)cc1Cl` (stereo not drawn), > 42 µM (inactive).
Next, `Cc1ccc(NC(=O)CN2CCN(CCN=CC3=C(O)CC(C)(C)CC3=O)CC2)cc1`: > 42 µM (inactive).
Next, `Cc1ccc(N(C(=O)Cn2nnc3ccccc32)C(C(=O)NC2CCCCC2)c2cn(C)nc2C)cc1` (stereo not drawn): > 21 µM (inactive); `CC1(C)CC(=O)C(C(=O)c2ccccc2)C(=O)C1Cl` (stereo not drawn): > 42 µM (inactive).
For `C=C(C)Cn1c(N)cc(=O)nc1SCC(=O)Nc1cccc(C(F)(F)F)c1`, the AC50 was > 42 µM (inactive).
Consider `O=C(O)CC(NC(=O)OCc1ccccc1)c1ccc(Br)cc1` (stereo not drawn), for which the AC50 was > 42 µM (inactive).
Next, `Cc1ccc(Cn2c(NCCc3ccccc3)nc3c2c(=O)n(C)c(=O)n3C)cc1`: > 42 µM (inactive); `Cc1cc(C#Cc2c(-c3ccccc3)n(C)c3ccccc23)ccc1F`: > 42 µM (inactive).
As to `O=C(/C=C/NNC(=O)c1ccc(Br)cc1)c1ccccc1`, the AC50 was > 42 µM (inactive).
To `COc1ccccc1C(=O)N(NC(=O)Oc1ccccc1)C(C)(C)C` belongs > 42 µM (inactive); to `CC(C(=O)N1CCN(C(=O)c2ccco2)CC1)n1sc2ccccc2c1=O` (stereo not drawn), > 42 µM (inactive); to `CC(N=C(NC#N)Nc1ccncc1)C(C)(C)C` (stereo not drawn), > 42 µM (inactive).
Next, `CCC1CCCCN1C(=O)CSc1nnc(CNC(=O)c2ccco2)o1` (stereo not drawn): > 42 µM (inactive).
To `Cc1cc(C)cc(C(=O)NC(CC(N)=O)c2ccc(NCCN3CCOCC3)c([N+](=O)[O-])c2)c1` (stereo not drawn) belongs > 42 µM (inactive); to `Cc1cc(C)cc(N(CC(=O)Nc2cccc(C)n2)S(=O)(=O)c2c(C)noc2C)c1`, > 42 µM (inactive); to `N#CC(C#N)=C1C=CC=CN1/C(=C\c1ccccc1Cl)C(=O)c1ccccc1`, > 42 µM (inactive).
As to `Cc1cc(C)c2c(Cn3ccnc3)cc(=O)oc2c1`, the AC50 is > 42 µM (inactive).
Next, `O=C(C1CCCN(S(=O)(=O)c2cnc[nH]2)C1)N1CCN(c2ccc(Cl)cc2)CC1` (stereo not drawn): > 42 µM (inactive); `O=C(/C=C/c1ccc(F)cc1)NCC1(c2ccccc2)CCOCC1`: > 42 µM (inactive); `Cc1ccc(-c2nn(-c3ccccc3)cc2C(=O)N2CCN(c3ccccn3)CC2)cc1`: > 42 µM (inactive).
To `O=C(O)COc1ccc(=O)n(-c2ccccc2)n1` belongs > 42 µM (inactive).
Consider `Cc1ccc(C)c(N2CCN(C(c3ccncc3)c3nnnn3Cc3ccccc3)CC2)c1` (stereo not drawn), for which the AC50 was 32.8 µM.
In the case of `Cc1cccc(Cn2c(C(=O)OC(C)C)cc3c2ccn3C)c1`, the AC50 was > 42 µM (inactive).
In the case of `COCC(=O)Nc1c(C(=O)Nc2ccc3c(c2)OCO3)oc2ccccc12`, the AC50 was > 42 µM (inactive).
As to `O=C(/C=C/c1cccc([N+](=O)[O-])c1)NCCSCc1ccc(Cl)cc1Cl`, the AC50 was > 42 µM (inactive).
With `CCOC(=O)c1cc(C#N)c(Oc2ccccc2OC)nc1-c1ccccc1`, the AC50 was > 42 µM (inactive).
Next, `CCOc1ccc(-c2nnc(SCC(=O)N3CCCC3)o2)cc1`: > 42 µM (inactive); `CCCc1ccc(S(=O)(=O)NCCc2ccncc2)cc1`: > 42 µM (inactive).
To `CCC1(CC)NC(=O)N(CC(=O)OCC(=O)NC(=O)c2ccccc2)C1=O` belongs > 42 µM (inactive); to `CC(NC(=O)CCc1nnc(-c2ccc(-c3ccccc3)cc2)o1)c1nc2ccccc2[nH]1` (stereo not drawn), > 42 µM (inactive); to `CC(C)(C)NC(=O)C(c1cccs1)N(Cc1cccs1)C(=O)c1ccc(CN2CCOCC2)o1` (stereo not drawn), > 42 µM (inactive).
In the case of `COc1ccc(N(C(=O)c2ccncc2)S(=O)(=O)c2ccc(F)cc2)cc1`, the AC50 was > 42 µM (inactive).
On to `Cc1cc(-c2ccccc2)n(-c2ccc(C(=O)NC(C)C)cc2)n1`, for which the AC50 is > 42 µM (inactive).
`Cc1ccc(-c2ccc(/C=N/n3cnnc3)o2)cc1`: the AC50 was > 42 µM (inactive).
Next, `Cc1cc(C)n(-c2nc3ccccc3nc2N2CCN(C(=O)c3ccccc3)CC2)n1`: > 42 µM (inactive); `CCn1ncc(Br)c1C(=O)Nc1ccc(OC(F)(F)F)cc1`: > 42 µM (inactive); `Nc1ccnc(=O)[nH]1`: > 42 µM (inactive).
`CC(C)N(C(=S)Nc1cccc(S(=O)(=O)N(C)C)c1)c1ccccc1`: the AC50 is > 42 µM (inactive).
Next, `COc1cc(/C=N/n2c(C3CCCCC3)n[nH]c2=S)cc(OC)c1O`: > 42 µM (inactive).
To `CC1Cc2ccccc2N1C(=O)CNc1cccc(S(=O)(=O)N2CCCC2)c1` (stereo not drawn) belongs > 42 µM (inactive).
To `Cc1ccc(N=c2ssnc2Cl)cc1` belongs > 42 µM (inactive); to `CC(=O)Nc1cccc(OCC(O)Cn2c(C)nc3ccccc32)c1` (stereo not drawn), > 42 µM (inactive); to `Cc1nc(N/N=C\c2ccc3c(c2)OCO3)sc1C`, > 42 µM (inactive).
On to `C=CCN1c2ccccc2[C@]23C[C@@H](C(=O)OC)N=C2NC(C(=O)OC)=C(C(=O)OC)[C@H]13`, for which the AC50 was > 42 µM (inactive).
Next, `COCC(C)n1c(C)cc(C(=O)CSc2ccc(NC(C)=O)cc2)c1C` (stereo not drawn): > 42 µM (inactive); `Cc1ccc(C(=O)/C=C/c2ccc(-c3ccccc3[N+](=O)[O-])o2)cc1`: > 42 µM (inactive); `CCCCCNC(=O)c1ccc2c(=O)n(CC3CCCO3)c(=O)[nH]c2c1` (stereo not drawn): 7.49 µM.
To `N#C/C(=C\Nc1ccc2c(c1)OCCO2)c1nc2ccccc2[nH]1` belongs > 42 µM (inactive); to `Cn1c(CSc2nc3ccccc3s2)nnc1SCC(=O)NCCN1CCOCC1`, > 42 µM (inactive).
Turning to `Cc1cc(NC(=O)c2ccccc2F)n(C(C)(C)C)n1`, the AC50 is > 42 µM (inactive).
Next, `CC(=O)Nc1ccc(/C(C)=N/NC(=O)c2ccncc2)cc1`: > 42 µM (inactive); `COCCNC(=O)NC(=O)CSc1nc(C)c(C)c(C)n1`: > 42 µM (inactive).
Next, `Cc1ccc(S(=O)(=O)n2cccc2C)cc1`: > 42 µM (inactive); `CC(C)CN(C(=O)COC(=O)c1ccc2c(c1)OCO2)c1c(N)n(Cc2ccccc2)c(=O)[nH]c1=O`: > 42 µM (inactive).
To `Cc1ccc(NC(=O)Nc2cccc(C(F)(F)F)c2)nc1` belongs > 42 µM (inactive).
For `CCN(CC)C(=O)CSc1nnc(CNc2ccc(F)cc2)n1Cc1ccco1`, the AC50 is > 42 µM (inactive).
Next, `O=C(CSc1ncccc1C(=O)O)NC1CCCCC1`: > 42 µM (inactive).
To `CCc1c(C)nc(N2CCN(Cc3ccccc3)CC2)[nH]c1=O` belongs > 42 µM (inactive).
To `CCc1cc2c(=O)c(-c3nc4ccccc4[nH]3)coc2c(CN2CCCCC2)c1O` belongs > 42 µM (inactive).
On to `CC(=O)CSc1ncnc2sc3c(c12)CCCC3`, for which the AC50 was > 42 µM (inactive).
Next, `CCc1c(C)c2ccc(OCC(=O)OC(C)C)c(C)c2oc1=O`: > 42 µM (inactive); `COc1ccccc1CNc1ncnc2nc[nH]c12`: > 42 µM (inactive); `C=CCn1c(-c2ccc(OC)cc2)nc2ccccc21`: > 42 µM (inactive).
With `C=CC(=O)NC1CC2CCC1(C)C2(C)C` (stereo not drawn), the AC50 is > 42 µM (inactive).
For the compound `CC1(C)NC(=O)N(CCCOc2ccccc2Br)C1=O`, the AC50 is > 42 µM (inactive).
Next, `Cc1ccc(-c2csc(NC(=O)CSc3nc(C)cs3)n2)cc1`: > 42 µM (inactive); `Nc1nc2ccccc2cc1-c1cccs1`: > 42 µM (inactive).
To `COc1cc(NC(=S)N2CCN(C(=O)C3CCCO3)CC2)c(OC)cc1Cl` (stereo not drawn) belongs > 42 µM (inactive); to `O=C(NCCNc1ccc(Cl)cc1[N+](=O)[O-])c1ccccc1F`, > 42 µM (inactive); to `C/C=C/C(=O)N1c2ccc(C)cc2C(C)=CC1(C)C`, > 42 µM (inactive).
To `COc1cc(/C=N/NC(=O)c2cccc([N+](=O)[O-])c2)ccc1O` belongs > 42 µM (inactive); to `CN(c1ccccc1)c1ccc(/C=C/[N+](=O)[O-])cc1`, > 42 µM (inactive).
Consider `CC(=O)/C=C/n1c(=S)oc2ccccc21`, for which the AC50 was > 42 µM (inactive).
Consider `COC(=O)C1CN(C(=O)C(C)Oc2ccc(F)cc2)c2ccccc2O1` (stereo not drawn), for which the AC50 was > 42 µM (inactive).
To `C#CCn1c(=NC(=O)CN2C(=O)CCC2=O)sc2cccc(OC)c21` belongs > 42 µM (inactive).

What is called AC50 is the concentration giving half of the maximal activity seen.

For the origin of these results see PubChem BioAssay AID463199 (Broad Institute, 2010).
